pIC50: −log10 of the molar value. Values after ≈ are worked out from the molar mass of the structure shown.
Legend:
[1] = Distribution coefficient, logD of the compound at pH 7.4 by LC-MS based shake-flask method; assay type: physicochemical; conditions: octanol/water, read-out: logD
MDA-MB-436 = experiment: Antiproliferative activity against human MDA-MB-436 cells assessed as reduction in cell viability incubated for 72 hrs by MTT assay; assay type: functional, cell-based; conditions: MDA-MB-436, 72 h
[2] = target: T1, Glutaminase kidney isoform, mitochondrial (Homo sapiens, UniProt O94925); experiment: Inhibition of recombinant human GLS1 expressed in Escherichia coli strain BL21 (DE3) preincubated for 10 mins before glutamine addition and measured after 60 mins by bovine liver glutamate dehydrogenase based coupled enzyme assay
T1 sequence (O94925 whole entry): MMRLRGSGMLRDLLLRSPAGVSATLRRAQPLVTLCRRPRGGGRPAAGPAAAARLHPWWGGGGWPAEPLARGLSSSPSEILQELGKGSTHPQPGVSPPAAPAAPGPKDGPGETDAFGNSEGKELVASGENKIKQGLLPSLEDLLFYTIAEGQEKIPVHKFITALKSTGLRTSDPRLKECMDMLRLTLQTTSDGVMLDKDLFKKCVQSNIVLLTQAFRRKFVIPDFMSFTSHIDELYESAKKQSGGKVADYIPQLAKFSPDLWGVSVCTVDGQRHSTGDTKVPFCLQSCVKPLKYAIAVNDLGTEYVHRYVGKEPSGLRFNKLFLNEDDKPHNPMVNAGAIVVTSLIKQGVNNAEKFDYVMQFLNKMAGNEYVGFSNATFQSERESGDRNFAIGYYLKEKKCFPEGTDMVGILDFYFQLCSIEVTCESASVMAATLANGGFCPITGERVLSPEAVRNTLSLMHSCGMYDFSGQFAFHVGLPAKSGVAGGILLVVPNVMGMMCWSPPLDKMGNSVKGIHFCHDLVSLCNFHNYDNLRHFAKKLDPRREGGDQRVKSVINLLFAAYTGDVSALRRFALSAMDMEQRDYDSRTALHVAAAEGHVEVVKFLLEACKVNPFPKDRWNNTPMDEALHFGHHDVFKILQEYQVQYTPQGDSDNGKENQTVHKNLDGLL

[3] = target: T2, Glutaminase kidney isoform, mitochondrial (Homo sapiens) (UniProt O94925)
T2 sequence (whole entry): T1 sequence (O94925 whole entry)
Description: Binding affinity to human GLS1 expressed in Escherichia coli strain BL21 (DE3) assessed as change in melting temperature by SYPRO orange dye based protein thermal shift assay

[4] = Intrinsic aqueous solubility of compound at pH 7.4 by LC-MS based shake-flask method; assay type: physicochemical; conditions: read-out: Intrinsic_solubility
HCT-116 [5] = experiment: Antiproliferative activity against human HCT116 cells assessed as reduction in cell viability incubated for 72 hrs by MTT assay; assay type: functional, cell-based; conditions: HCT-116, 72 h
HCT-116 [6] = experiment: Inhibition of colony formation in human HCT-116 cells incubated for 14 days by crystal violet staining based assay; assay type: functional, cell-based; conditions: dose 0.1-2 µM, time 14.0 day

Compound	logD [1]	pIC50 (MDA-MB-436)	pIC50 [2]	ΔTm [3] [°C]	solubility thermodynamic [4] [µg/mL]	pIC50 (HCT-116 [5])	inhibition (HCT-116 [6])
O=C1Cc2cccc(c2)OCCCC/C=C/CCCCOc2cccc(c2)CC(=O)NC2=NN=C(CCCCC3=NN=C(N1)S3)S2	3.85	5.19	6.65	16.6	0.22 (≈ 0.333 µM)	5.15	
O=C1CCCC/C=C/CCCCOc2cccc(c2)CCC(=O)Nc2nnc(s2)CCCCc2ccc(nn2)N1	3.89	5.74	6.91	16.3	1.97 (≈ 3.5 µM)	6.17	
O=C1CC/C=C/CCC(=O)Nc2cccc(c2)CC(=O)Nc2nnc(s2)CCCCc2ccc(nn2)NC(=O)Cc2cccc(c2)N1	2.53	6.08	7.12	15.9	2.34 (≈ 3.58 µM)	6.28	Dose-Dependent Effect
O=C1Cc2cccc(c2)OCCC/C=C/CCCOc2cccc(c2)CC(=O)Nc2nnc(s2)CCCCc2ccc(nn2)N1	3.48	6.24	7.55	18.3	1.62 (≈ 2.58 µM)	6.72	Dose-Dependent Effect
O=C1Cc2ccc(cc2)OCCCC/C=C/CCCCOc2ccc(cc2)CC(=O)Nc2nnc(s2)CCCCc2nnc(s2)N1	3.91	5.60	6.71	12.9	0.25 (≈ 0.378 µM)	5.83	
O=C1CCc2cccc(c2)OCCCC/C=C/CCCC(=O)Nc2nnc(s2)CCCCc2ccc(nn2)N1	4.29	6.29	7.60	16.7	1.84 (≈ 3.35 µM)	6.85	Dose-Dependent Effect
O=C1Cc2cccc(c2)OCC/C=C/CCOc2cccc(c2)CC(=O)NC2=NN=C(CCCCC3=NN=C(N1)S3)S2	3.16	6.33	7.33	15.9	0.31 (≈ 0.513 µM)	6.46	
O=C1Cc2cccc(c2)OC/C=C/COc2cccc(c2)CC(=O)Nc2nnc(s2)CCCCc2ccc(nn2)N1	2.79	6.19	7.49	17.2	2.16 (≈ 3.78 µM)	6.59	Dose-Dependent Effect
O=C1Cc2ccc(cc2)OCCC/C=C/CCCOc2ccc(cc2)CC(=O)Nc2nnc(s2)CCCCc2nnc(s2)N1	3.62	4.42	5.33	0.19	0.29 (≈ 0.458 µM)	4.79	

From ChEMBL document CHEMBL4831477, “Structure-Enabled Discovery of Novel Macrocyclic Inhibitors Targeting Glutaminase 1 Allosteric Binding Site” (J Med Chem, 2021)
